The target in assay [1] is T1, Human PDGFRα, cytoplasmic domain (GST-PDGFRα) (Homo sapiens, UniProt P16234).
T1 construct: made in house
Description: Human PDGFRα biochemical inhibition assay (off-chip Mobility Shift Assay).

In assay [2] the target is T2, Human PDGFRβ, cytoplasmic domain (GST-PDGFRβ) (Homo sapiens, UniProt P09619).
T2 construct: made in house
Description: Human PDGFRβ biochemical inhibition assay (off-chip Mobility Shift Assay). How it is done: Human PDGFRβ Biochemical Inhibition Assay
The compounds described herein were tested for the ability to inhibit activity of PDGFRβ which was achieved via use of an off-chip Mobility Shift Assay (MSA). Human PDGFRβ, cytoplasmic domain [557-1106 (end) amino acids of accession number NP_002600.1 (SEQ ID NO: 3)] was expressed as N-terminal GST-fusion protein (88 kDa) using baculovirus expression system (SEQ ID NO: 4). GST-PDGFRβ was purified by using glutathione sepharose chromatography. Test compounds were dissolved in and diluted with dimethylsulfoxide (DMSO) to achieve 1 mM concentration. Then the solution was further diluted 25-fold with assay buffer to make the final test compound solution. The reference compound, Staurosporine, used as the assay positive control was prepared similarly. The 4× compound solution/substrate (CSKtide, 1000 nM)/ATP (Km ATP)/Mg Metal (5 mM) was prepared with kit buffer (20 mM HEPES, 0.01% Triton X-100, 5 mM DTT, pH 7.5), and 2× kinase solution was prepared with assay buffer (20 mM HEPES, 0.01% Triton X-100, 1 mM DTT, pH 7.5). The 5 μL of 4× compound solution, […] of 4× Substrate/ATP/Metal solution, and […] of 2× kinase solution were mixed and incubated in a well of polypropylene 384 well microplate for 1 hour at room temperature. […] of Termination Buffer (QuickScout Screening Assist MSA; Carna Biosciences) was added to the well. The reaction mixture was applied to LabChip™ system (Perkin Elmer), and the product and substrate peptide peaks were separated and quantitated. The kinase reaction was evaluated by the product ratio calculated from peak heights of product(P) and substrate(S) peptides (P/(P+S)). The readout value of reaction control (complete reaction mixture) was set as a 0% inhibition, and the readout value of background (Enzyme(−)) was set as a 100% inhibition, then the percent inhibition of each test solution was calculated.
With respect to PDGFRβ activity: “+++” denotes an IC50 of less than 300 nM; “++” denotes an IC50 of from 300 nM to less than 1000 nM; and “+” denotes an IC50 of 1000 nM or more.

Where a name gives a salt, the structure may show the parent alone.

T1 sequence (P16234 550-1089 T674I): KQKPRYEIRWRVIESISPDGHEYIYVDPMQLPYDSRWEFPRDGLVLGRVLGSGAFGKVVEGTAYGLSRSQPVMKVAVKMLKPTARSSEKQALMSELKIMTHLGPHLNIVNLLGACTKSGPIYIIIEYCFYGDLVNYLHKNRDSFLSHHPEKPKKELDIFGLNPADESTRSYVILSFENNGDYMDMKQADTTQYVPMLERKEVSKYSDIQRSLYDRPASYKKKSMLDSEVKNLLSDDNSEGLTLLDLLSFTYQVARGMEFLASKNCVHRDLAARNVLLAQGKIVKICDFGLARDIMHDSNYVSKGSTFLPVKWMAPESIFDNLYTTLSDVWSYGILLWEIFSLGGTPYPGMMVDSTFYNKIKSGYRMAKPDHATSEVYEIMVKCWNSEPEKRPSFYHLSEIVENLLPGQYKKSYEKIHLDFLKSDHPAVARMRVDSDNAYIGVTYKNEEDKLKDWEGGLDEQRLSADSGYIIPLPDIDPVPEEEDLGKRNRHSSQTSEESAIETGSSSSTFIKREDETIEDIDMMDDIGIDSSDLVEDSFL
T2 sequence (P09619 with tags, fused parts or gaps): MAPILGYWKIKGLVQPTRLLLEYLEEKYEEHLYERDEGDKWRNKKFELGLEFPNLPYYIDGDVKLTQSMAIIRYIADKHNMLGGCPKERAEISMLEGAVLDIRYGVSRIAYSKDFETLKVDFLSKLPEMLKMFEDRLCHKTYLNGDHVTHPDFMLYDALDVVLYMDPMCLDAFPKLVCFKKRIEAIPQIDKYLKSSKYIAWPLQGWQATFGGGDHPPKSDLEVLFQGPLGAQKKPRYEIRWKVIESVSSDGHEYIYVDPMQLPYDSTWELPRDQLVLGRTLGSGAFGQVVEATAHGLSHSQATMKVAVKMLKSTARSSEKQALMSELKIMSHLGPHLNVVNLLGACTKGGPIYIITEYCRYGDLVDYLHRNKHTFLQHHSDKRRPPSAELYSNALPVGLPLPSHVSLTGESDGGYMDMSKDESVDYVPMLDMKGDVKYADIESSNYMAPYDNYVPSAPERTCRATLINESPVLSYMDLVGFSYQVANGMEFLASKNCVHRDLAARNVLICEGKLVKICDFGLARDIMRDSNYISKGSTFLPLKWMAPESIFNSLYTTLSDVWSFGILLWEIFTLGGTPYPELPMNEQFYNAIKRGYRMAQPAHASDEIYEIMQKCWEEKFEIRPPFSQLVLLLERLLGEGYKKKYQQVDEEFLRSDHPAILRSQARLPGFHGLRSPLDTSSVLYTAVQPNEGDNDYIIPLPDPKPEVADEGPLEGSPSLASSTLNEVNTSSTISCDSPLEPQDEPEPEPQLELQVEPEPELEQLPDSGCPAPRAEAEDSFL

For the compound `Cc1cncc(C(=O)Nc2cccc([C@H](C)Nc3cnc4ccn(C)c4n3)c2)c1` [Compound 1, (S)-5-methyl-N-(3-(1-((5-methyl-5H-pyrrolo[2,3-b]pyrazin-3-yl)amino)ethyl)phenyl)nicotinamide], the IC50 in assay [1] and in assay [2] was below 300 nM in each case. On to `Cc1cncc(C(=O)Nc2cccc([C@H](C)Nc3cnc4ccccc4c3)c2)c1` [Compound 2, (S)-5-methyl-N-(3-(1-(quinolin-3-ylamino)ethyl)phenyl)nicotinamide], for which the IC50 was below 300 nM in assay [1] and 300 to 1000 nM in assay [2]. For `Cc1cncc(C(=O)Nc2cccc([C@H](C)Nc3cnc4cccnc4c3)c2)c1` [Compound 3, (S)—N-(3-(1-((1,5-naphthyridin-3-yl)amino)ethyl)phenyl)-5-methylnicotinamide] the same measures were below 300 nM and at least 1000 nM. For `Cc1cncc(C(=O)Nc2cccc([C@H](C)Nc3cnc4ccccc4n3)c2)c1` [Compound 4, (5)-5-methyl-N-(3-(1-(quinoxalin-2-ylamino)ethyl)phenyl)nicotinamide trifluoroacetate] the same measures were below 300 nM and below 300 nM. For `Cc1cncc(C(=O)Nc2cccc([C@H](C)Nc3cnc4cccnc4n3)c2)c1` [Compound 5, (S)-5-methyl-N-(3-(1-(pyrido[2,3-b]pyrazin-3-ylamino)ethyl)phenyl) nicotinamide] the same measures were below 300 nM and 300 to 1000 nM.

Regarding `COc1ccc(-n2ccc3ncc(N[C@@H](C)c4cccc(NC(=O)c5cncc(C)c5)c4)cc32)cc1OC` [Compound 6, (S)—N-(3-(1-((1-(3,4-dimethoxyphenyl)-1H-pyrrolo[3,2-b]pyridin-6-yl)amino)ethyl)phenyl)-5-methylnicotinamide], the IC50 was below 300 nM in assay [1] and at least 1000 nM in assay [2]. As to `CCn1ncc2ncc(N[C@@H](C)c3cccc(NC(=O)c4cncc(C)c4)c3)cc21` [Compound 7], the half-maximal inhibitory concentration (IC50) was below 300 nM in assay [1] and at least 1000 nM in assay [2].

On to `Cc1cncc(C(=O)Nc2cccc([C@H](C)Nc3cnc4cnn(C)c4n3)c2)c1` [Compound 8, (S)-5-methyl-N-(3-(1-((1-methyl-1H-pyrazolo[3,4-b]pyrazin-6-yl)amino)ethyl)phenyl)nicotinamide], for which the IC50 in assay [1] and in assay [2] was below 300 nM throughout. On to `CCn1cc2ncc(N[C@@H](C)c3cccc(NC(=O)c4cncc(C)c4)c3)nc2n1` [Compound 9, (S)—N-(3-(1-((2-ethyl-2H-pyrazolo[3,4-b]pyrazin-6-yl)amino)ethyl)phenyl)-5-methylnicotinamide], for which the IC50 was below 300 nM in assay [1] and 300 to 1000 nM in assay [2]. As to `CCn1cc2ncc(N[C@@H](C)c3cc(NC(=O)c4ccc(C(F)(F)F)nc4)ccc3F)nc2n1` [Compound 10, (S)—N-(3-(1-((2-ethyl-2H-pyrazolo[3,4-b]pyrazin-6-yl)amino)ethyl)-4-fluorophenyl)-6-(trifluoromethyl)nicotinamide], the half-maximal inhibitory concentration (IC50) in assay [1] and in assay [2] was below 300 nM in each case. In the case of `CCn1cc2ncc(N[C@@H](C)c3cccc(NC(=O)c4cncc(C)c4)c3)cc2n1` [Compound 11, (S)—N-(3-(1-((2-ethyl-2H-pyrazolo[4,3-b]pyridin-6-yl)amino)ethyl)phenyl)-5-methylnicotinamide], the IC50 in assay [1] and in assay [2] was below 300 nM in each case.

Turning to `Cc1cncc(C(=O)Nc2cccc([C@H](C)Nc3cnc4[nH]c(=O)n(C)c4n3)c2)c1` [Compound 12, (S)-5-methyl-N-(3-(1-((3-methyl-2-oxo-2,3-dihydro-1H-imidazo[4,5-b]pyrazin-5-yl)amino)ethyl)phenyl)nicotinamide], the IC50 in assay [1] and in assay [2] was below 300 nM in each case. Turning to `Cc1cncc(C(=O)Nc2cccc([C@H](C)Nc3cnc4[nH]nc(C)c4c3)c2)c1` [Compound 14, (S)-5-methyl-N-(3-(1-((3-methyl-1H-pyrazolo[3,4-b]pyridin-5-yl)amino)ethyl)phenyl)nicotinamide], the IC50 in assay [1] and in assay [2] was below 300 nM in each case. Take `Cc1cncc(C(=O)Nc2cccc([C@H](C)Nc3cnc4[nH]cc(C)c4n3)c2)c1` [Compound 15, (S)-5-methyl-N-(3-(1-((7-methyl-5H-pyrrolo[2,3-b]pyrazin-2-yl)amino)ethyl)phenyl)nicotinamide]: the 50% inhibitory concentration (IC50) in assay [1] and in assay [2] was below 300 nM in each case. Regarding `Cc1cncc(C(=O)Nc2cccc([C@H](C)Nc3cnc4[nH]nc(C)c4n3)c2)c1` [Compound 16, (S)-5-methyl-N-(3-(1-((3-methyl-1H-pyrazolo[3,4-b]pyrazin-5-yl)amino)ethyl)phenyl)nicotinamide], the IC50 in assay [1] and in assay [2] was below 300 nM throughout. Turning to `Cc1cncc(C(=O)Nc2cccc([C@H](C)Nc3cnc4cc(C)oc4n3)c2)c1` [Compound 17, (S)-5-methyl-N-(3-(1-((6-methylfuro[2,3-b]pyrazin-3-yl)amino)ethyl)phenyl)nicotinamide], the IC50 in assay [1] and in assay [2] was below 300 nM each time. Regarding `Cc1cncc(C(=O)Nc2cccc([C@H](C)Nc3cnc4cc(C)sc4c3)c2)c1` [Compound 18, (S)-5-methyl-N-(3-(1-((2-methylthieno[3,2-b]pyridin-6-yl)amino)ethyl)phenyl)nicotinamide], the IC50 in assay [1] and in assay [2] was below 300 nM in each case. Take `Cc1cncc(C(=O)Nc2cccc([C@H](C)Nc3cnc4cc(C)sc4n3)c2)c1` [Compound 19, (S)-5-methyl-N-(3-(1-((6-methylthieno[2,3-b]pyrazin-3-yl)amino)ethyl)phenyl)nicotinamide]: the IC50 in assay [1] and in assay [2] was below 300 nM each time. Consider `Cc1cncc(C(=O)Nc2cccc([C@H](C)Nc3cnn4ccccc34)c2)c1` [Compound 20, (S)-5-methyl-N-(3-(1-(pyrazolo[1,5-a]pyridin-3-ylamino)ethyl)phenyl)nicotinamide], for which the IC50 in assay [1] and in assay [2] was at least 1000 nM each time. Regarding `Cc1cncc(C(=O)Nc2cccc([C@H](C)Nc3cncc4c3cnn4-c3cnn(C)c3)c2)c1` [Compound 21], the IC50 in assay [1] and in assay [2] was below 300 nM each time.

In the case of `Cc1cncc(C(=O)Nc2cccc([C@H](C)Nc3cnc4cc(C)oc4c3)c2)c1` [Compound 22, (S)-5-methyl-N-(3-(1-((2-methylfuro[3,2-b]pyridin-6-yl)amino)ethyl)phenyl)nicotinamide], the 50% inhibitory concentration (IC50) in assay [1] and in assay [2] was below 300 nM in each case. For the compound `Cc1cncc(C(=O)Nc2cccc([C@H](C)Nc3cnc4[nH]cnc4n3)c2)c1` [Compound 23, (S)—N-(3-(1-((1H-imidazo[4,5-b]pyrazin-5-yl)amino)ethyl)phenyl)-5-methylnicotinamide], the IC50 in assay [1] and in assay [2] was 300 to 1000 nM in each case. Consider `CCc1nc2cc(N[C@@H](C)c3cccc(NC(=O)c4cncc(C)c4)c3)cnc2[nH]1` [Compound 24], for which the IC50 in assay [1] and in assay [2] was 300 to 1000 nM in each case.

As to `CCn1cc2ncc(N[C@@H](C)c3cccc(NC(=O)Cc4ccc(C)cn4)c3)nc2n1` [Compound 25, (S)—N-(3-(1-((2-ethyl-2H-pyrazolo[3,4-b]pyrazin-6-yl)amino)ethyl)phenyl)-2-(5-methylpyridin-2-yl)acetamide], the IC50 in assay [1] was below 300 nM; in assay [2] it was at least 1000 nM. For `Cc1cncc(C(=O)Nc2cccc([C@H](C)Nc3cnc4ncccc4n3)c2)c1` [Compound 26, (S)-5-methyl-N-(3-(1-(pyrido[2,3-b]pyrazin-2-ylamino)ethyl)phenyl) nicotinamide] the same measures were 300 to 1000 nM and at least 1000 nM. With `COc1cccc2ncc(N[C@@H](C)c3cccc(NC(=O)c4cncc(C)c4)c3)cc12` [Compound 27, (S)-N-(3-(1-((5-methoxyquinolin-3-yl)amino)ethyl)phenyl)-5-methylnicotinamide], the IC50 in assay [1] and in assay [2] was below 300 nM each time. Consider `COc1ccc2cc(N[C@@H](C)c3cccc(NC(=O)c4cncc(C)c4)c3)cnc2c1` [Compound 28, (S)-N-(3-(1-((7-methoxyquinolin-3-yl)amino)ethyl)phenyl)-5-methylnicotinamide], for which the IC50 in assay [1] and in assay [2] was below 300 nM throughout.

For the compound `Cc1cncc(C(=O)Nc2cccc([C@H](C)Nc3cnc4cccc(F)c4c3)c2)c1` [Compound 29, (S)-N-(3-(1-((5-fluoroquinolin-3-yl)amino)ethyl)phenyl)-5-methylnicotinamide], the IC50 in assay [1] and in assay [2] was below 300 nM each time. Regarding `CSc1cncc(C(=O)Nc2cccc([C@H](C)Nc3cnc4cnn(C)c4n3)c2)c1` [Compound 225], the IC50 in assay [2] is below 300 nM.

Source of the values: patent US20230102554A1 (GB002, INC., priority 2019, published 2023).
